Patent US5442043A, “Peptide conjugate” (Takeda Chemical Industries, Ltd., priority 1992, dated 1995)
Bridge positions count the residues as written; N and C are the ends. Peptide text beside a SMILES is read from it. I, II: the chains in the order shown.

How the values were obtained:
[1] = compared with natural insulin; cited from earlier work
[2] = biological target: T1, insulin receptor on the capillary endothelial cell (Bos taurus, UniProt F1MV64); assay: Competitive inhibition of 125I-insulin binding on bovine brain microvessel endothelial cell monolayers
T1 construct: endogenous in cells; host or cells: primary bovine brain microvessel endothelial cell monolayers
T1 sequence (F1MV64 28-1382): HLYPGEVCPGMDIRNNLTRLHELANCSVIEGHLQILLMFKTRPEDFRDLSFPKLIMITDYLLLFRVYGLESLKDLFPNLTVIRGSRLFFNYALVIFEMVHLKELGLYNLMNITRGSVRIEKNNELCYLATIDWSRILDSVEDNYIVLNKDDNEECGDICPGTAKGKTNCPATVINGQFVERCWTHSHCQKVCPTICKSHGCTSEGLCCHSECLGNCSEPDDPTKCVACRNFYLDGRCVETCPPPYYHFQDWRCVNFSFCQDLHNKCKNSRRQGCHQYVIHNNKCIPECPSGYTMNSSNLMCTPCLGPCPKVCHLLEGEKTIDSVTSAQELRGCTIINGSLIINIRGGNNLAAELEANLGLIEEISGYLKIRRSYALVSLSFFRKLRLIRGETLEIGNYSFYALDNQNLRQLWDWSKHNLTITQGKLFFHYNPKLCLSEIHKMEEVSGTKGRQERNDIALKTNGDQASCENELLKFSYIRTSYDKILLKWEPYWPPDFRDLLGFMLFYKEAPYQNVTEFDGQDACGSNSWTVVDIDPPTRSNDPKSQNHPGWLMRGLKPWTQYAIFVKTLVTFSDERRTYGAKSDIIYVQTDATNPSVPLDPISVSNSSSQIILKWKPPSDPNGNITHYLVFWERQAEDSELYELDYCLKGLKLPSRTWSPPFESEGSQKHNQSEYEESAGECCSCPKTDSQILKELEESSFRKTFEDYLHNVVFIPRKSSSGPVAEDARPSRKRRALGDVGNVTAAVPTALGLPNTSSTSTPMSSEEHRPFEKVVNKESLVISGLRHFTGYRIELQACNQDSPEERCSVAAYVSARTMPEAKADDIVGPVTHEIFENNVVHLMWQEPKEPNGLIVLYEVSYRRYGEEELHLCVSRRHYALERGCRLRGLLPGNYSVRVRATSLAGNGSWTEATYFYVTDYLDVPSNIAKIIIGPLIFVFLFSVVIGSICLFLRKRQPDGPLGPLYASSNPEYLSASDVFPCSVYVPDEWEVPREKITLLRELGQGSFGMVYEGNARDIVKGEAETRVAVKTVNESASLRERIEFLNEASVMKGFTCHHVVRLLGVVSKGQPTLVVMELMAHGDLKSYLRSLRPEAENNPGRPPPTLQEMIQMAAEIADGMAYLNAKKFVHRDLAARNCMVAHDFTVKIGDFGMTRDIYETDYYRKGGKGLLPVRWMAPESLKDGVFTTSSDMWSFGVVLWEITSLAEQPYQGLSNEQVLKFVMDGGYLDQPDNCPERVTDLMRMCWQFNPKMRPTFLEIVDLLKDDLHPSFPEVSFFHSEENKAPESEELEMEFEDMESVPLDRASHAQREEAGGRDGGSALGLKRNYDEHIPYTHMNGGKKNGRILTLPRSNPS
Method: In accordance with the description by Ronald T. Borchart et al. of the United States in "Characteristics of the Large Neutral Amino Acid Transport System of Bovine Brain Microvessel Endothelial Cell Monolayers" [Journal of Neurochemistry, Vol. 47, pp. 484-488 (1986)], bovine brain microvessel endothelial cells were separated in a monolayer, whose affinity for the receptor on the endothelial cell was determined.

| Compound | Insulin activity (in words) [1] | 125I-insulin binding ratio (%) after addition of non-labeled compound ([2]; addition concentration 1.0 × 10 μM) | 125I-insulin binding ratio (%) after addition of non-labeled compound ([2]; addition concentration 1.0 × 10^2 μM (first line so printed)) | 125I-insulin binding ratio (%) after addition of non-labeled compound ([2]; addition concentration 1.0 × 10^2 μM (second line so printed)) | Affinity for the insulin receptor on the capillary endothelial cell (in words) ([2]; fragments obtained by solid phase synthesis, Examples 4 and 5) | Affinity for the receptor on the cerebral capillary endothelial cell (in words) ([2]; fragments obtained by trypsin digestion, Examples 1 and 2) |
| --- | --- | --- | --- | --- | --- | --- |
| (B25-30) pentapeptide deficient-[Phe^B25 -α-carboxyamide]insulin | acts as potently as natural insulin |  |  |  |  |  |
| CC[C@H](C)[C@H](NC(=O)CN)C(=O)N[C@H](C(=O)N[C@@H](CCC(=O)O)C(=O)N[C@@H](CCC(N)=O)C(=O)N[C@H]1CSSC[C@@H](C(=O)N[C@@H](CO)C(=O)N[C@@H](CC(C)C)C(=O)N[C@@H](Cc2ccc(O)cc2)C(=O)O)NC(=O)[C@H]([C@@H](C)CC)NC(=O)[C@H](CO)NC(=O)[C@H]([C@@H](C)O)NC(=O)[C@H](CSSC[C@H](NC(=O)[C@H](CC(C)C)NC(=O)[C@H](Cc2c[nH]cn2)NC(=O)[C@H](CCC(N)=O)NC(=O)[C@H](CC(N)=O)NC(=O)[C@@H](NC(=O)[C@@H](N)Cc2ccccc2)C(C)C)C(=O)NCC(=O)N[C@@H](CO)C(=O)N[C@@H](Cc2c[nH]cn2)C(=O)N[C@@H](CC(C)C)C(=O)N[C@H](C(=O)N[C@@H](CCC(=O)O)C(=O)N[C@@H](C)C(=O)N[C@@H](CC(C)C)C(=O)N[C@@H](Cc2ccc(O)cc2)C(=O)O)C(C)C)NC1=O)C(C)C [F001] (I: H-FVNQHLCGSHLVEALY-OH / II: H-GIVEQCCTSICSLY-OH; disulfide I:7-II:7, II:6-II:11) |  | 93.2 ± 0.4% | 61.6 ± 1.2% | 78.5 ± 3.8% | same affinity as insuline frogments obtained in Example 1 and 2 | showed affinity |
